Measured values reported in patent US7151090B2, “Methods for enhancing graft survival by modulating heme oxygenase activity” (priority 1998, dated 2006).
Entries after “also recorded” stand apart in the source; their conditions may differ.

Tests used:
[1] = test system: fatty livers from obese Zucker rats; experiment: Ex vivo steatotic rat liver cold ischemia model followed by reperfusion; type: in vivo; conditions: for bile production / portal blood flow: 2-hour reperfusion after 6 hours cold ischemia; for bile production / portal blood flow / I/R-induced hepatocyte injury measured by sGOT release: compared with untreated controls; for I/R-induced hepatocyte injury measured by sGOT release: 2-hour reperfusion
Experimental: Animals, metalloporphyrins, and adenovirus constructs are described in Example 3. Ex vivo cold ischemia model: Genetically obese Zucker rats underwent ether anesthesia and systemic heparinization. […] Control livers from untreated obese Zucker rats were stored for 6 hours at 4° C. in UW solution (n=6). There were 4 treatment groups. Group 1 animals received CoPP, the HO-1 inducer (5 mg/kg intraperitoneally) 24 hours before liver harvest (n=6). Group 2 rats were infused with Ad-HO-1 or Ad-β Gal (2.4×10^9 plaque-forming units (pfu) […]) 24 to 48 hours before the procurement (n=4–10). Group 3 donors were treated with Ad-HO-1 (2.4×10^9 pfu intravenously) at day-2, followed 1 day later by infusion of ZnPP (20 mg/kg intraperitoneally), the HO-1 inhibitor (n=4). Group 4 rats received ZnPP alone (20 mg/kg intraperitoneally) at 24 hours before harvest (n=4). All livers were procured at day 0, stored for 6 hours at 4° C. in UW solution, and then perfused on an isolated perfusion rat liver apparatus, as described. The Zucker livers were perfused ex vivo for 2 hours while temperature, pH, and inflow pressure were kept constant. Portal vein blood flow and pressure were recorded every 15 minutes, whereas bile output was monitored every 30 minutes. Portal vein blood flow was adjusted to maintain portal pressures of 13 to 18 cm H2O. Blood was collected at 30-minute intervals and serum glutamic-oxaloacetic trans-aminase (sGOT) levels were measured using an autoanalyzer from ANTECH Diagnostics (Irvine, Calif., USA). Following 2 hours of perfusion, a portion of the liver was snap-frozen for mRNA extraction and Western blot analysis of HO-1 expression; the remaining tissue samples were fixed in formalin for hematoxylin and eosin (H&E) staining.

[2] = test system: fatty livers from obese Zucker rats; experiment: Liver histology in the ex vivo cold ischemia model, Banff's criteria; parameters: species or system rat; conditions: after 2 hours perfusion; graded 1 to 4; untreated 3.0±0.63
Excerpt: Histology and immunohistochemistry: Liver specimens were fixed in a 10% buffered formalin solution and embedded in paraffin. Sections were made at 4 μm and stained with H&E. The histologic severity of I/R injury in the ex vivo perfusion model was graded using International Banff Criteria. Using these criteria, lobular disarray and ballooning changes are graded from 1 to 4, where no change is given a score of 1 and severe disarray or ballooning changes is given a score of 4.

EL4 cells = experiment: Cytotoxic T-cell activity, four hour chromium release assay; type: cell-based, mouse; conditions: for target cell lysis: at about 10 μg/ml, cytotoxic T-cells, E:T 20:1, four hour incubation; for chromium release from target cells: at concentrations higher than about 10 μg/ml, compared with spontaneous release without compound
Excerpt: Cytotoxic T-cell Activity: To assay the effect of metalloprotoporphyrins on cytotoxic T-cell activity, CBA to B6 effectors were generated following a five day culture of 3×10^6 CBA spleen cells with 3×10^6 mitomycin-treated B6 spleen cells in wells of a 24-well plate (Nunclone, Delta, Nunc, Denmark) in R-10 medium. Effector cells were then harvested and washed. (H2^b), a mouse lymphoma induced in C57BL/6N was used as target cells. EL4 cells were routinely subcultured once every three days. They were then collected, washed, and labeled with 0.1 mCi of sodium chromate-51 in 200 μl for one hour at 37° C. Effector (E) and target (t) cells were added into V-shaped tissue culture plates (Nunc, Denmark) at E:T of 20:1. Metalloprotoporphyrins were diluted to the working concentrations with PBS and added at the beginning of the four hour incubation period. For the determination of maximal release, 1% triton X-100 was added to separate wells. Plates were centrifuged for three minutes to increase cellular contact before the four hour incubation period. After incubation 75 μl supernatant from each well was collected and the amount of^51Cr released was counted using a TopCount scintillation counter. The degree of cell lysis was calculated using the formula below: […]

HO-1 [3] = experiment: Western analysis of HO-1 expression in the ex vivo I/R injury model; parameters: species or system rat; conditions: at completion of 2-hour perfusion period; densitometer; untreated 0.11 AU
Experimental: (§1) Western blots: Protein was extracted from liver tissue samples with PBSTDS buffer (50 mM Tris, 150 mM NaCl, 0.1% SDS, 1% sodium deoxycholate, and 1% Triton X-100, pH 7.2). Proteins (30 μg/sample) in SDS-loading buffer (50 mM Tris, pH 7.6, 10% glycerol, 1% SDS) were subjected to 12% SDS-PAGE and transferred to nitrocellulose membrane (Bio-Rad Laboratories Inc., Hercules, Calif., USA). The gel was then stained with Coomassie blue to document equal protein loading. The membrane was blocked with 3% dry milk and 0.1% Tween-20 (Amersham, Arlington Heights, Ill., USA) in PBS and incubated with rabbit anti-rat HO-1 polyclonal Ab (Sangstat Corp., San Francisco, Calif., USA). The filters were washed and then incubated with horseradish peroxidase donkey anti-rabbit Ab (Amersham Life Sciences, Arlington Heights, Ill., USA). Relative quantities of HO-1 protein were determined using a densitometer (Kodak Digital Science 1D Analysis Software, Rochester, N.Y., USA) and results were expressed in absorbance units (AU).
Western blots were performed as described in Example 3.

[4] = test system: C57B1/6 heart allografts in CBA recipients; experiment: Heterotopic heart transplantation, allograft survival; type: in vivo, mouse; conditions: control 7.8±1.1
Experimental: FIG. 2 is a graph showing the prolongation of heart allograft survival following metalloprotoporphyrin therapy. CBA recipients of C57B1/6 heart allografts were either untreated or treated as follows: Zn-protoporphyrin group (n=4); Zn-protoporphyrin was administered at 10 mg/kg/day on day −1 before transplantation and on days 1–9 post transplantation. Co-protoporphyrin group (n=4); Co-protoporphyrin was administered at 20 mg/kg/day on days 0–5 post-transplantation; Zn-protoporphyrin pretreatment group (n=3); heart donors were treated one day before transplantation with 50 mg/kg Zn-protoporphyrin.
Heterotopic Heart Transplantation: Abdominal heterotopic heart transplantation was performed as previously described by Ono and Lindsey, J. Thorac. Cardiovasc. Surg. 7:225–229 (1969) using […] donors and CBA recipients. Metalloporphyrin was administered intraperitoneally using various protocols. Heart allograft survival was monitored daily by direct palpation, and rejection was defined as termination of palpable cardiac contractility. Results are expressed as percentage graft survival at a given postoperative period. Statistical analysis was performed with the Mann-Whitney test.

[5] = test system: fatty liver isografts from obese Zucker donors in lean Zucker recipients; experiment: Syngeneic orthotopic liver transplant (OLT) model, survival and sGOT; type: in vivo, rat
Experimental: Syngeneic Orthotopic Liver Transplant (OLT) model: Syngeneic liver transplants were performed using fatty livers that were harvested from obese Zucker rats and stored for 4 hours at 4° C. in University of Wisconsin (UW) solution before being transplanted into lean Zucker recipients. OLTs were performed with revascularization without hepatic artery reconstruction. There were 2 treatment groups. In the first group, obese Zucker rats (n=10) received CoPP (5 mg/kg intraperitoneally) 24 hours before the procurement. Group 2 donors (n=11) were treated with Ad-HO-1 (2.4×10^9 pfu intravenously) 24 hours before harvest. OLT recipients were followed for survival and serum glutamic-oxaloacetic trans-aminase (sGOT) levels. Separate groups of rats (n=2/group) were sacrificed at 1, 7, 14, and 100 days after OLT, and liver samples were collected for H&E/immunohistology staining and Western blot analysis.

HO-1 [6] = experiment: Rat sandwich ELISA of HO-1 protein in liver; type: in vivo; conditions: 5 mg/kg intraperitoneally
Experimental: To test that stress-induced upregulation of HO-1 reduces I/R insult in steatotic rat livers, we have chosen 2 distinct HO-1-inducing approaches. First, donor rats were pretreated with CoPP (5 mg/kg intraperitoneally), a regimen that increases HO-1 protein levels in rat livers by 250% in a rat sandwich ELISA. Second, because infusion of CoPP in high doses may modulate other heme enzymes such as nitric oxide synthase (NOS) and guanylate cyclase, we have also used Ad-based gene delivery to provide “proof of principle” and to selectively upregulate HO-1 expression in prospective liver donors. Western blot analysis confirmed increased HO-1 protein expression in the ex vivo I/R model using Ad-HO-1-transduced rat steatotic livers.

liver isografts [7] = experiment: OLT immunohistochemistry for mononuclear cell (MNC) infiltration; type: in vivo, rat
Experimental: OLTs were examined serially by immunohistochemistry for mononuclear cell (MNC) infiltration. Briefly, liver tissue was embedded in Tissue Tek OCT compound (Miles Inc., Elkhart, Ind., USA), snap frozen in liquid nitrogen, and stored at −70° C. Cryostat sections (5 μm) were fixed in acetone, and then endogenous peroxidase activity was inhibited with 0.3% H2O2 in PBS. Normal heat-inactivated donkey serum (10%) was used for blocking. Appropriate primary mouse Ab against rat T cells (R73) and monocytes/macrophages (ED1) (Harlan Bioproducts for Science, Indianapolis, Ind., USA) were added at optimal dilutions. Bound primary Ab was detected using biotinylated donkey anti-mouse IgG and streptavidin peroxidase-conjugated complexes (DAKO Corp., Carpinteria, Calif., USA). The control sections were performed by replacing the primary Ab with either dilution buffer or normal mouse serum. The peroxidase reaction was developed with 3,3-diaminobenzidine tetrahydrochloride (Sigma Chemical Co., St. Louis, Mo., USA). The sections were evaluated blindly by counting the labeled cells in triplicates in 10 high-power fields.

HO-1 [8] = experiment: Western analysis of HO-1 expression in the OLT model; type: in vivo, rat; conditions: day 1, 7, 14 and 100 after transplant; densitometer; untreated 0.09–0.85 AU
Experimental: as §1

liver isografts [9] = experiment: OLT liver histology, modified Suzuki's criteria; type: in vivo, rat; conditions: day 1 after transplant; graded 0 to 4; control 3.33±0.58
Excerpt: Histology and immunohistochemistry: Liver specimens were fixed in a 10% buffered formalin solution and embedded in paraffin. Sections were made at 4 μm and stained with H&E. The previously published Suzuki's criteria (Suzuki et al., Transplantation 55:1265–1272 (1993)), […] were modified to evaluate the histologic severity of I/R injury in the OLT model. In this classification sinusoidal congestion, hepatocyte necrosis, and ballooning degeneration are graded from 0 to 4. No necrosis, congestion or centrilobular ballooning is given a score of 0, whereas severe congestion and ballooning degeneration as well as greater than 60% lobular necrosis is given a value of 4.

[10] = recipients treated i.p., Zn 10 mg/kg/day day -1 and days 1-9, Co 20 mg/kg/day days 0-5

With `C=CC1=C(C)c2cc3[n-]c(cc4nc(cc5[n-]c(cc1n2)c(C)c5C=C)C(C)=C4CCC(=O)O)c(CCC(=O)O)c3C.[Zn+2]` [ZnPP, Zinc-protoporphyrin] the bile production [1] was “diminished”, the portal blood flow [1] was “diminished” and the “I/R-induced hepatocyte injury measured by sGOT release” value [1] was “augmented hepatocyte injury comparable with otherwise untreated fatty controls”. The “Banff's score” value [2] was 2.86±0.12, the target cell lysis (EL4 cells) was 0% and the “chromium release from target cells” value (EL4 cells) was “lower than the spontaneous release”. For the same compound, the HO-1 expression (HO-1 [3]) was 0.12 AU, the “heart allograft survival (mean survival time)” value (“heart allograft survival” for short) ([4]; heart donors pre-treated one day before transplantation (50 mg/kg)) was 10.3±1.5 days and the “heart allograft survival” value [4, 10] was 12.0±2.4 days.

In the case of `C=CC1=C(C)c2cc3[n-]c(cc4nc(cc5[n-]c(cc1n2)c(C)c5CCC(=O)[O-])C(CCC(=O)[O-])=C4C)c(C)c3C=C.[Co+2].[H+].[H+]` [CoPP, cobalt-protoporphyrin], the sGOT levels ([5]; day 1 post transplant, control 2695) was 1838 IU/L, the sGOT levels ([5]; day 7 post transplant, control 1570) was 477 IU/L and the sGOT levels ([5]; day 14 post transplant, control 460) was 198 IU/L. The “recipients still alive at well over 100 days after transplant” value ([5]; lean Zucker rats engrafted with livers from treated obese Zucker donors) was 8 out of 10, the bile production [1] was “significantly increased; also recorded: significantly higher” and the portal blood flow [1] was “significantly improved”. The “I/R-induced hepatocyte injury measured by sGOT release” value [1] was “markedly reduced”, the sGOT concentrations ([1]; at 60 minutes of reperfusion, untreated controls 102±8.23) was 53.3±8.23 IU/L and the “Banff's score” value [2] was 1.21±0.39. The “increase of HO-1 protein levels in rat livers” value (HO-1 [6]) was 250%, the “intragraft T cells” value (liver isografts [7]; day 1, labeled cells counted in 10 high-power fields, control 9±3) was 2±1 and the intragraft monocytes/macrophages (liver isografts [7]; day 1, labeled cells counted in 10 high-power fields, control 136±31) was 71±12. The “hepatocyte architecture and MNC infiltrate of long-term liver grafts” value (liver isografts [7]; grafts harvested at day 100) was “good preservation of hepatocyte architecture and only mild MNC infiltrate”, the target cell lysis (EL4 cells) was 0% and the “chromium release from target cells” value (EL4 cells) was “lower than the spontaneous release”. The HO-1 expression (HO-1 [3]) was 2.46 AU, the “heart allograft survival” value [4, 10] was 10.5±0.6 days and the HO-1 expression (HO-1 [8]) was 1.21–2.14 AU. The Suzuki score (liver isografts [9]) was 1.33±0.70.
